Read-outs that look alike come from different tables or passages of the source. Where a SMILES comes first, the peptide text is derived from it. Where no end group is shown, it is not given here.
Assays:
H2O2-damaged HepG2 cells = format: cell-based
Method: The assay was carried out according to the method described by Hu et al., and the H2O2 concentration of 300 µM was applied to establish the oxidative damage model of HepG2 cells. Briefly, the HepG2 cells with density of 1 × 10^5 cells/well were incubated in a 96-well plate for 24 h. The supernatant in the 96-well plate was aspirated and 100 µL of peptide samples (50.0, 100.0, or 200.0 µM, respectively) were added into the protection groups respectively for incubating 8 h. After removing peptides, H2O2 with the final concentration of 300 µM was joined in the protection and model groups. After incubating for 24 h, the wells were rinsed twice with PBS and the MTT with the final concentration of 0.5 mg/mL was added into. After incubating for 4 h, the formazan crystals formed by active cells were soluble in 150 µL of DMSO and OD570 nm of the solution was determined. Finally, the cell viability was calculated using the equation: Cell viability = (ODsample/ODcontrol) × 100%(2)

[1] = Stability to simulated gastrointestinal digestion (DPPH· scavenging activity); format: in vitro ADME; conditions: two-stage model: pepsin 120 min then trypsin 120 min; 0 to 240 min; peptide 2.0 mg/mL; read-out DPPH· scavenging activity
Method: The stability of TCP1 to TCP11 from tuna cardiac arterial bulbs was determined according to the previous method with a slight modification. The DPPH· scavenging activity (%) of TCP1 to TCP11 at 2.0 mg/mL were measured at the set conditions to evaluate their stability.
The thermostability of TCP1 to TCP11 at 20, 40, 60, 80, or 100 °C for 60 min was analyzed in water bath. The influences of pH values of 3, 5, 7, 9, or 11 were employed to estimate the acid and alkali stability properties of TCP1 to TCP11 at 25 °C, and the detecting time was set to 60, 120, and 180 min, respectively. The influence of simulate GI digestion on the stability of TCP1 to TCP11 was evaluated by the two-stage digestion model. In short, APs (TCP1 to TCP11) were separately treated with pepsin for 120 min and trypsin for 120 min.

[2] = peptide 200 μmol/L, 8 h pre-incubation, then 300 µM H2O2 for 24 h, MTT, model group 50.64 ± 2.43%, mean ± SD, n = 3

CC(=O)N[C@@H](CS)C(=O)O [N-Acetyl-L-Cysteine (NAC), N-Acetyl-L-Cysteine]
viability of H2O2-damaged HepG2 cells (H2O2-damaged HepG2 cells; [2]): 90.06 ± 3.16%

NCCCC[C@H](NC(=O)[C@H](CCCCN)NC(=O)[C@@H]1CCCN1)C(=O)O [TCP3, Pro-Lys-Lys] (H-Pro-Lys-Lys-OH)
viability of H2O2-damaged HepG2 cells (H2O2-damaged HepG2 cells; 8 h, 200 μmol/L): 81.26 ± 1.86%

GEQSN [TCP2, Gly-Glu-Gln-Ser-Asn]
Declined percentage of DPPH· scavenging activity after simulated GI digestion [1]: 4.49%

GPGLM [TCP9, Gly-Pro-Gly-Leu-Met]
viability of H2O2-damaged HepG2 cells (H2O2-damaged HepG2 cells; 8 h, 200 μmol/L): 78.54 ± 3.06%

YEGGD [TCP6, Tyr-Glu-Gly-Gly-Asp]
viability of H2O2-damaged HepG2 cells (H2O2-damaged HepG2 cells; [2]): 74.68 ± 1.69%

— publication PMC9604775, “Bioactive Peptides from Skipjack Tuna Cardiac Arterial Bulbs: Preparation, Identification, Antioxidant Activity, and Stability against Thermal, pH, and Simulated Gastrointestinal Digestion Treatments” (Marine Drugs, 2022)
